Test system: 12 single or co-culture in vitro tissue models of primary cells
Assay: Culture/co-culture cell model panel, extracellular biomarkers (DiscoveRx); as to CCL2/MCP-1: reference of the scale not given here; as to CD38: reference of the scale not given here; as to CD40: reference of the scale not given here; as to CD69: reference of the scale not given here; as to CXCL8/IL-8: reference of the scale not given here; as to CXCL9/MIG: reference of the scale not given here; as to IL-1alpha: reference of the scale not given here; as to M-CSF: reference of the scale not given here; as to PBMC Cytotoxicity: reference of the scale not given here
Assay type: cell-based, human
[1] = /Mphg Huvec+macrophages, 1.00E4 nM
[2] = /Mphg Huvec+macrophages, 1.11E3 nM
[3] = /Mphg Huvec+macrophages, 1.23E2 nM
[4] = /Mphg Huvec+macrophages, 1.37E1 nM
[5] = /Mphg Huvec+macrophages, 3.33E3 nM
[6] = /Mphg Huvec+macrophages, 3.70E2 nM
[7] = /Mphg Huvec+macrophages, 4.12E1 nM
[8] = /Mphg Huvec+macrophages, 4.57E0 nM

## Cc1n[nH]c2ncc(C(=O)N3CCC[C@H]3c3ccc(Cl)cc3)cc12 [CMPD4]
/HDFNo, 4.57E0 nM
  Collagen I: -0.029
  Collagen III: 0.064
[1]
  CCL2/MCP-1: -0.014
  CCL3/MIP-1alpha: 0.020
  CD40: 0.064
  CD62E/E-Selectin: -0.080
  CD69: 0.239
  CD106/VCAM-1: 0.005
  CXCL8/IL-8: 0.133
  IL-1alpha: -0.065
  M-CSF: 0.054
  SRB: -0.016
  SRB-Mphg: 0.00054
  sIL-10: -0.061
[2]
  CCL2/MCP-1: -0.111
  CCL3/MIP-1alpha: -0.011
  CD40: 0.027
  CD62E/E-Selectin: -0.087
  CD69: 0.187
  CD106/VCAM-1: -0.0013
  CXCL8/IL-8: 0.008
  IL-1alpha: -0.048
  M-CSF: -0.024
  SRB: -0.010
  SRB-Mphg: -0.020
  sIL-10: -0.122
[3]
  CCL2/MCP-1: -0.109
  CCL3/MIP-1alpha: 0.015
  CD40: -0.002
  CD62E/E-Selectin: -0.108
  CD69: 0.181
  CD106/VCAM-1: 0.017
  CXCL8/IL-8: 0.014
  IL-1alpha: -0.049
  M-CSF: -0.028
  SRB: -0.00948
  SRB-Mphg: 0.00118
  sIL-10: -0.100
[4]
  CCL2/MCP-1: -0.054
  CCL3/MIP-1alpha: 0.000182
  CD40: -0.054
  CD62E/E-Selectin: -0.144
  CD69: 0.083
  CD106/VCAM-1: 0.0075
  CXCL8/IL-8: 0.000538
  IL-1alpha: -0.006
  M-CSF: -0.041
  SRB: -0.007
  SRB-Mphg: 0.004
  sIL-10: 0.023
[5]
  CCL2/MCP-1: -0.091
  CCL3/MIP-1alpha: -9.82e-5
  CD40: 0.039
  CD62E/E-Selectin: -0.094
  CD69: 0.200
  CD106/VCAM-1: 0.025
  CXCL8/IL-8: 0.043
  IL-1alpha: -0.044
  M-CSF: -0.021
  SRB: -0.013
  SRB-Mphg: 0.00473
  sIL-10: -0.159
[6]
  CCL2/MCP-1: -0.110
  CCL3/MIP-1alpha: -0.009
  CD40: -0.020
  CD62E/E-Selectin: -0.094
  CD69: 0.185
  CD106/VCAM-1: 0.027
  CXCL8/IL-8: 0.00143
  IL-1alpha: -0.030
  M-CSF: -0.017
  SRB: -0.005
  SRB-Mphg: -0.005
  sIL-10: -0.159
[7]
  CCL2/MCP-1: -0.089
  CCL3/MIP-1alpha: 0.015
  CD40: -0.055
  CD62E/E-Selectin: -0.120
  CD69: 0.131
  CD106/VCAM-1: -0.013
  CXCL8/IL-8: 0.037
  IL-1alpha: -0.015
  M-CSF: -0.025
  SRB: -0.00546
  SRB-Mphg: 0.005
  sIL-10: -0.021
[8]
  CCL2/MCP-1: -0.005
  CCL3/MIP-1alpha: -0.00218
  CD40: -0.087
  CD62E/E-Selectin: -0.111
  CD69: 0.012
  CD106/VCAM-1: 0.00354
  CXCL8/IL-8: -0.024
  IL-1alpha: 0.018
  M-CSF: -0.010
  SRB: 0.001
  SRB-Mphg: 0.011
  sIL-10: 0.038
/TH2, 1.00E4 nM
  CCL2/MCP-1: -0.115
  CCL26/Eotaxin-3: -0.131
  CD38: -0.035
  CD40: -0.240
  CD62E/E-Selectin: 0.049
  CD62P/P-selectin: -0.00467
  CD69: -0.006
  CD87/uPAR: -0.174
  CD106/VCAM-1: -0.004
  CXCL8/IL-8: -0.049
  CXCL9/MIG: -0.021
  Collagen IV: 0.028
  PBMC Cytotoxicity: -0.00277
  SRB: -0.174
  sIL-17A: 0.175
  sIL-17F: 0.137
/TH2, 1.11E3 nM
  CCL2/MCP-1: -0.084
  CCL26/Eotaxin-3: -0.167
  CD38: -0.006
  CD40: -0.166
  CD62E/E-Selectin: 0.083
  CD62P/P-selectin: -0.044
  CD69: 0.041
  CD87/uPAR: -0.190
  CD106/VCAM-1: 0.034
  CXCL8/IL-8: -0.084
  CXCL9/MIG: -0.034
  Collagen IV: -0.00538
  PBMC Cytotoxicity: -0.052
  SRB: -0.084
  sIL-17A: 0.045
  sIL-17F: 0.003
/TH2, 1.23E2 nM
  CCL2/MCP-1: -0.100
  CCL26/Eotaxin-3: -0.152
  CD38: -0.00143
  CD40: -0.162
  CD62E/E-Selectin: 0.078
  CD62P/P-selectin: -0.060
  CD69: 0.046
  CD87/uPAR: -0.227
  CD106/VCAM-1: 0.025
  CXCL8/IL-8: -0.055
  CXCL9/MIG: -0.030
  Collagen IV: -0.013
  PBMC Cytotoxicity: 0.007
  SRB: -0.061
  sIL-17A: 0.043
  sIL-17F: 0.061
/TH2, 1.37E1 nM
  CCL2/MCP-1: -0.029
  CCL26/Eotaxin-3: -0.152
  CD38: 0.015
  CD40: -0.156
  CD62E/E-Selectin: 0.024
  CD62P/P-selectin: -0.040
  CD69: 0.016
  CD87/uPAR: -0.193
  CD106/VCAM-1: 0.020
  CXCL8/IL-8: -0.050
  CXCL9/MIG: 0.013
  Collagen IV: 0.018
  PBMC Cytotoxicity: -0.060
  SRB: -0.037
  sIL-17A: -0.008
  sIL-17F: 0.096
/TH2, 3.33E3 nM
  CCL2/MCP-1: -0.125
  CCL26/Eotaxin-3: -0.151
  CD38: -0.023
  CD40: -0.167
  CD62E/E-Selectin: 0.088
  CD62P/P-selectin: -0.076
  CD69: 0.020
  CD87/uPAR: -0.191
  CD106/VCAM-1: 0.009
  CXCL8/IL-8: -0.082
  CXCL9/MIG: -0.033
  Collagen IV: 0.00458
  PBMC Cytotoxicity: -0.051
  SRB: -0.131
  sIL-17A: 0.034
  sIL-17F: 0.022
/TH2, 3.70E2 nM
  CCL2/MCP-1: -0.111
  CCL26/Eotaxin-3: -0.170
  CD38: 0.020
  CD40: -0.169
  CD62E/E-Selectin: 0.039
  CD62P/P-selectin: -0.043
  CD69: 0.055
  CD87/uPAR: -0.203
  CD106/VCAM-1: 0.023
  CXCL8/IL-8: -0.040
  CXCL9/MIG: -0.019
  Collagen IV: -0.00656
  PBMC Cytotoxicity: 0.007
  SRB: -0.083
  sIL-17A: 0.040
  sIL-17F: 0.00074
/TH2, 4.12E1 nM
  CCL2/MCP-1: -0.080
  CCL26/Eotaxin-3: -0.157
  CD38: 0.006
  CD40: -0.170
  CD62E/E-Selectin: 0.069
  CD62P/P-selectin: -0.051
  CD69: 0.028
  CD87/uPAR: -0.181
  CD106/VCAM-1: 0.009
  CXCL8/IL-8: -0.049
  CXCL9/MIG: -0.018
  Collagen IV: -0.002
  PBMC Cytotoxicity: -0.057
  SRB: -0.051
  sIL-17A: 0.042
  sIL-17F: 0.053
/TH2, 4.57E0 nM
  CCL2/MCP-1: -0.000419
  CCL26/Eotaxin-3: -0.103
  CD38: -0.00453
  CD40: -0.110
  CD62E/E-Selectin: 0.029
  CD62P/P-selectin: 0.013
  CD69: 0.026
  CD87/uPAR: -0.100
  CD106/VCAM-1: 0.017
  CXCL8/IL-8: 0.027
  CXCL9/MIG: 0.021
  Collagen IV: 0.011
  PBMC Cytotoxicity: -0.009
  SRB: -0.014
  sIL-17A: 0.056
  sIL-17F: 0.044
BENo, 1.00E4 nM
  CCL26/Eotaxin-3: 0.048
  CD54/ICAM-1: -0.115
  CD87/uPAR: -0.014
  CXCL8/IL-8: -0.033
  CXCL9/MIG: 0.082
  CXCL10/IP-10: -0.00135
  CXCL11/I-TAC: -0.038
  EGFR: 0.006
  HLA-DR: -0.032
  IL-1alpha: -0.034
  Keratin 8/18: -0.032
  MMP-1: 0.000562
  MMP-9: -0.051
  PAI-I: -0.097
  SRB: -0.020
  tPA: -0.115
  uPA: -0.041
BENo, 1.11E3 nM
  CCL26/Eotaxin-3: -0.033
  CD54/ICAM-1: -0.081
  CD87/uPAR: -0.049
  CXCL8/IL-8: -0.031
  CXCL9/MIG: -0.00357
  CXCL10/IP-10: -0.058
  CXCL11/I-TAC: -0.048
  EGFR: 0.007
  HLA-DR: 0.036
  IL-1alpha: -0.027
  Keratin 8/18: 3.05e-5
  MMP-1: -0.038
  MMP-9: -0.005
  PAI-I: -0.107
  SRB: 0.008
  tPA: -0.047
  uPA: -0.007
BENo, 1.23E2 nM
  CCL26/Eotaxin-3: -0.013
  CD54/ICAM-1: -0.092
  CD87/uPAR: -0.00225
  CXCL8/IL-8: -0.028
  CXCL9/MIG: -0.018
  CXCL10/IP-10: -0.010
  CXCL11/I-TAC: -0.021
  EGFR: 0.013
  HLA-DR: 0.00213
  IL-1alpha: 0.008
  Keratin 8/18: -0.021
  MMP-1: -0.035
  MMP-9: -0.086
  PAI-I: -0.061
  SRB: 0.015
  tPA: -0.029
  uPA: -0.020
BENo, 1.37E1 nM
  CCL26/Eotaxin-3: 0.037
  CD54/ICAM-1: -0.062
  CD87/uPAR: 0.021
  CXCL8/IL-8: -0.025
  CXCL9/MIG: -0.110
  CXCL10/IP-10: -0.013
  CXCL11/I-TAC: -0.064
  EGFR: 0.011
  HLA-DR: 0.054
  IL-1alpha: -0.002
  Keratin 8/18: -0.018
  MMP-1: -0.037
  MMP-9: -0.035
  PAI-I: -0.045
  SRB: 0.023
  tPA: 0.009
  uPA: -0.014
BENo, 3.33E3 nM
  CCL26/Eotaxin-3: -0.026
  CD54/ICAM-1: -0.069
  CD87/uPAR: -0.045
  CXCL8/IL-8: -0.035
  CXCL9/MIG: -0.00357
  CXCL10/IP-10: -0.006
  CXCL11/I-TAC: -0.044
  EGFR: 0.00248
  HLA-DR: 0.016
  IL-1alpha: -0.032
  Keratin 8/18: -0.033
  MMP-1: -0.028
  MMP-9: -0.009
  PAI-I: -0.091
  SRB: -0.011
  tPA: -0.052
  uPA: -0.052
BENo, 3.70E2 nM
  CCL26/Eotaxin-3: -0.028
  CD54/ICAM-1: -0.092
  CD87/uPAR: -0.025
  CXCL8/IL-8: -0.027
  CXCL9/MIG: -0.00262
  CXCL10/IP-10: -0.017
  CXCL11/I-TAC: -0.036
  EGFR: -0.014
  HLA-DR: -0.009
  IL-1alpha: -0.009
  Keratin 8/18: -0.013
  MMP-1: -0.038
  MMP-9: -0.012
  PAI-I: -0.072
  SRB: 0.008
